Measurements published in article PMC3392217, “BmK-YA, an Enkephalin-Like Peptide in Scorpion Venom” (PLoS ONE, 2012).
No end group written: not given here.

Assays:
Assay type in all cases: cell-based
human opioid receptor μ = biological target: T1, human opioid receptor μ (Homo sapiens, UniProt P35372); assay: Ca2+ response monitored by FLIPR, μ-expressing cells; conditions: μ-expressing HEK293T cells
T1 construct: expressed in transfected cells
Experimental: (§1) The assay was performed as reported earlier.
(§2) Potency is determined by EC50.

human opioid receptor κ = biological target: T2, human opioid receptor κ (Homo sapiens, UniProt P41145); assay: Ca2+ response monitored by FLIPR, κ-expressing cells; conditions: κ-expressing HEK293T cells
T2 construct: expressed in transfected cells
T2 sequence (P41145 whole entry): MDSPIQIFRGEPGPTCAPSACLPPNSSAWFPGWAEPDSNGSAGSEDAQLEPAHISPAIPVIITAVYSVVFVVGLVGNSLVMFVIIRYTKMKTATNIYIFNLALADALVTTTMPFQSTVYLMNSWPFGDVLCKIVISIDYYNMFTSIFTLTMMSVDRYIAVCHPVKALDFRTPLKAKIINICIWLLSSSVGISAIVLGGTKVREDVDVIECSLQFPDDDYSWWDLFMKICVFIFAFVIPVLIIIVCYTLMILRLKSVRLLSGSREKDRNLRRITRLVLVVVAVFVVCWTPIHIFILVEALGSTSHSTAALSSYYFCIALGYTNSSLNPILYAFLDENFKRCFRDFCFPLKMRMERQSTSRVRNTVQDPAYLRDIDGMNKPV
Experimental: as §1, §2

human opioid receptor δ = biological target: T3, human opioid receptor δ (Homo sapiens, UniProt P41143); assay: Ca2+ response monitored by FLIPR, δ-expressing cells
T3 construct: expressed in transfected cells
T3 sequence (P41143 whole entry): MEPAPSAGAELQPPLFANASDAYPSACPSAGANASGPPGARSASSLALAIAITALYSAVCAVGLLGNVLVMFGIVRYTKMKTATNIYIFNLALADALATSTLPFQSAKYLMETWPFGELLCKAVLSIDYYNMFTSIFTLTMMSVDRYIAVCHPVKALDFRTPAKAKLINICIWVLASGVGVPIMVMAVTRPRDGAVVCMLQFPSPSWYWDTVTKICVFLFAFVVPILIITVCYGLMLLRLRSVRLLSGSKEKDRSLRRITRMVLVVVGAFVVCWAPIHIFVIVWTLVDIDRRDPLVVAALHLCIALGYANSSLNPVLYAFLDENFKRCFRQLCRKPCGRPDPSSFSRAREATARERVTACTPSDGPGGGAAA
Experimental: as §1, §2

[1] = Gqαi3 cotransfected, Fluo-4 AM, FLIPR, mean±SE, n = 3, read-out: EC50 (intracellular Ca2+ mobilization)

T1 sequence (P35372 whole entry): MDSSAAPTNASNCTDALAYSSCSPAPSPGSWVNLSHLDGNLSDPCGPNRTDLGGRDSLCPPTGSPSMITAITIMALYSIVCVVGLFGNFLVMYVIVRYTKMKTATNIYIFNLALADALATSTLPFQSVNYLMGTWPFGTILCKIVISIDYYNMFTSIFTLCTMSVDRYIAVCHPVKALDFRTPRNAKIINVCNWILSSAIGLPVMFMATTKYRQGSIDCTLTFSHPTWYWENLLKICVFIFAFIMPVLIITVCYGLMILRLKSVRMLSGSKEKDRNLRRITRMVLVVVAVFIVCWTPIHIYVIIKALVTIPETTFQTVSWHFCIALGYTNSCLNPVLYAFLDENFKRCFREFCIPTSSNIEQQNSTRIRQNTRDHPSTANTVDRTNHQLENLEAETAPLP

| Substance | Agonist activity, in words (human opioid receptor μ; 1 nM to 50 µM) | Agonist activity, in words (human opioid receptor κ; 1 nM to 50 µM) | Agonist activity, in words (human opioid receptor δ; δ-expressing HEK293T cells, 1 nM to 50 µM) | EC50 (human opioid receptor μ; [1]) [µM] | EC50 (human opioid receptor κ; [1]) [µM] | Selectivity to the δ-subtype over κ (times) (human opioid receptor δ; δ versus κ, FLIPR EC50) | Selectivity to the δ-subtype over μ (times) (human opioid receptor δ; δ versus μ, FLIPR EC50) | EC50 (human opioid receptor δ; δ-expressing HEK293T cells, Gqαi3 cotransfected, Fluo-4 AM, FLIPR, mean±SE, n = 3, read-out: EC50 (intracellular Ca2+ mobilization)) [µM] |
| --- | --- | --- | --- | --- | --- | --- | --- | --- |
| YGGHMNPA [His^4-BmK-YA] | no activity was detected | no activity was detected | no activity was detected | – | – | – | – | – |
| YGGYMNPA-NH2 [BmK-YA] | – | – | – | 17 | 30 ± 0.5 | 12 | 6.8 | 2.5 |
